Laboratory results from patent publication US6946132B2, “Vaccine compositions and methods useful in inducing immune protection against arthritogenic peptides involved in the pathogenesis of rheumatoid arthritis” (The Regents of the University of California, priority 1994, dated 2005).

Key:
[1] = system: lymphocytes from patients with early stage RA; assay: Proliferation of lymphocytes from RA patients exposed to RA susceptibility sequence peptides (stimulation index); format: cell-based, human; settings: for response of RA patient blood lymphocytes to wild-type peptide (dnaJp1) relative to response to mutant peptide (dnaJpV): PBL's of RA patients
Description: FIG. 2 quantifies proliferation of cultured lymphocytes from adult RA and juvenile RA (JRA) patients following exposure of the cells to synthetic dnaJp1 (amino acid sequence […]; SEQ. ID. No. 4) or a mutant dnaJ peptide having the amino acid sequence […] (“dnaJpV”; SEQ. ID. No. 5). The control culture tested consisted of lymphocytes obtained from adults without RA (“normals”). The responses shown by bars in the graph of FIG. 2 are expressed in terms of a lymphocyte stimulation index; i.e., (CPM detected in cultures with dnaJ)/(CPM detected in cultures without dnaJ).
(§1) Lymphocytes from patients with early untreated rheumatoid arthritis (RA) were obtained from blood (peripheral blood lymphocytes, or “PBL's”) for from synovial fluids using standard aseptic techniques. The cells were incubated for 7 days with purified recombinant E. coli dnaJ (10 μg/ml, obtained as described in Example I) in RPMI 1640 medium supplemented with 10% prescreened human AB type serum. Lymphocytes from 10 control subjects (i.e., persons without RA) were treated similarly. Proliferation during the last 16 hours of culture was expressed as a stimulation index=cpm in cultures with dnaJ/cpm in cultures without dnaJ.
Lymphocytes from patients with early stage RA were contacted with one of two RA susceptibility sequence peptides according to the protocol described in Example II. The peptides used were either a 15 amino acid synthetic peptide having the wild-type sequence […] or a 15 amino acid synthetic mutant peptide having the sequence […].

[2] = system: anti-dnaJ antibodies in sera from patients with early stage RA; assay: Inhibition of antibody binding to dnaJ (ELISA, sera preincubated with peptide); set-up: species or system human; settings: sera diluted 1:100, preincubated overnight at 4° C. with peptide; % inhibition; FIG. 3
Procedure: FIG. 3 depicts the results of an inhibition study for inhibition of the activity of anti-dnaJ antibodies produced in separate sera samples from 51 early stage RA patients by intact dnaJ. The percent inhibition shown by bars in the graph of FIG. 3 is expressed in terms of the formula: % inhibition=100 I-OD460 with rdnaJ)(OD460 without rdnaJ) The control sera were obtained from humans without RA.
Microtiter plates were coated with recombinant dnaJ (10 μg/ml). Either sera obtained from patients with early stage RA or sera from control subjects were diluted 1:100 in borate buffered saline. Half of each specimen was incubated overnight at 4° C. with the wild-type dnaJ peptide described in Example III. Then the paired serum specimens were added to the dnaJ coated plates.
After 4 hours incubation, antibody binding was detected with alkaline phosphatase labelled goat anti-human IgG; levels of detected antibody binding were determined according to the following formula: % inhibition=100 (1-OD460with wild-type peptide)(OD460without wild-type peptide)

[3] = system: purified HLA MHC Class II epitopes; assay: ELISA binding of biotinylated dnaJ peptides to immobilized HLA molecules; set-up: species or system human; settings: ELISA absorption at 405 nm; FIG. 5
Description: FIG. 5 is a table comparing the binding efficiencies of several dnaJ peptides for purified HLA MHC Class II epitopes. Binding was detected by ELISA between biotinylated dnaJ peptides and immobilized HLA molecules. The results are expressed in the table as absorption units at 405 nm. The peptides tested were: dnaJp1 (SEQ. ID. No. 4), dnaJpV (SEQ. ID. No. 5), dnaJp2 (SEQ. ID. No. 6), S1 (SEQ. ID. No. 7) and S6 (SEQ. ID. No. 8). S1 and […] are synthetic peptides whose amino acid sequence corresponds to the sequence of known HLA DR antigens.

[4] = system: lymphocytes from patients with early untreated rheumatoid arthritis; assay: Proliferation of lymphocytes from early stage RA patients exposed to rdnaJ (stimulation index); format: cell-based, human; settings: rdnaJ 10 μg/ml, 7 days, FIG. 1
Description: FIG. 1 quantifies proliferation of cultured lymphocytes from 22 patients with early, untreated RA (“early stage” RA) following exposure of the cells to intact bacterial dnaJ protein. The responses shown by bars in the graph of FIG. 1 are expressed in terms of a lymphocyte stimulation index; i.e., (CPM detected in cultures with dnaJ)/(CPM detected in cultures without dnaJ). “CPM” refers to counts-per-minute. The control culture tested consisted of lymphocytes obtained from humans without RA.
as §1

Molecule | response of RA patient PBL's to wild-type peptide relative to response of lymphocytes from control subjects to wild-type peptide ([1]; FIG. 2) | response of RA patient blood lymphocytes to wild-type peptide (dnaJp1) relative to response to mutant peptide (dnaJpV) ([1]; FIG. 2) [times] | response of RA patient blood lymphocytes to wild-type peptide (dnaJp1) relative to response to mutant peptide (dnaJpV) ([1]; FIG. 2, listed as wild-type peptide) | inhibition of antibody binding to rdnaJ in RA sera relative to inhibition in control sera [2] [times] | binding to HLA MHC Class II molecule epitopes relative to human HLA Dw4 peptides (S1 and S6) [3] [times] | proliferation response of PBL's relative to response of control subject lymphocytes ([4]; PBL's from 14 early stage RA patients) | proliferation response of synovial fluid lymphocytes relative to response of control subject lymphocytes ([4]; synovial fluid lymphocytes from 8 early stage RA patients)
QKRAAYDQYGHAAFE (Synthetic dnaJp1) | approximately 9 times | ~10 | more than 5 times | ~3 | ≥ 100 | – | –
rdnaJ: recombinant E. coli dnaJ heat shock protein, expressed and affinity purified, 41 kD (protein, UniProt P08622 2-376, looked up) Chaperone protein DnaJ: AKQDYYEILGVSKTAEEREIRKAYKRLAMKYHPDRNQGDKEAEAKFKEIKEAYEVLTDSQKRAAYDQYGHAAFEQGGMGGGGFGGGADFSDIFGDVFGDIFGGGRGRQRAARGADLRYNMELTLEEAVRGVTKEIRIPTLEECDVCHGSGAKPGTQPQTCPTCHGSGQVQMRQGFFAVQQTCPHCQGRGTLIKDPCNKCHGHGRVERSKTLSVKIPAGVDTGDRIRLAGEGEAGEHGAPAGDLYVQVQVKQHPIFEREGNNLYCEVPINFAMAALGGEIEVPTLDGRVKLKVPGETQTGKLFRMRGKGVKSVRGGAQGDLLCRVVVETPVGLNERQKQLLQELQESFGGPTGEHNSPRSKSFFDGVKKFFDDLTR | – | – | – | – | – | approximately 3.6 times | approximately 2.3 times
